Conditions: male, human, in vivo, iv

## CC(=O)N[C@H]1[C@H](O[C@@H]2c3ccc(c(Cl)c3)Oc3cc4cc(c3O)Oc3ccc(cc3Cl)C[C@H]3NC(=O)[C@H](N)c5ccc(O)c(c5)Oc5cc(O)cc(c5)[C@H](NC3=O)C(=O)N[C@H]4C(=O)N[C@H]3C(=O)N[C@@H]2C(=O)N[C@H](C(=O)O)c2cc(O)cc(O[C@H]4O[C@H](CO)[C@@H](O)[C@H](O)[C@@H]4O)c2-c2cc3ccc2O)O[C@H](CO)[C@@H](O)[C@@H]1O [A3-1]
  isoform plasma concentration, median: 0.18 µg/mL

— PMC10532956, “Age and Sex-Related Differences in Teicoplanine Isoform Concentrations in SARS-CoV-2 Patients” (Life, 2023)
